The values that follow come from patent US7145058B2, “Efficient method of preventing growth of microbial genetic transformant after transformation” (Council of Scientific and Industrial Research, priority 2002, dated 2006).

The structures appear in SMILES notation.

Data set [1] deals with Agrobacterium tumefaciens. The data set can be described thus: Growth curve of Agrobacterium tumefaciens in liquid Yeast Mannitol Broth, optical density at 600 nm. It is filed as cell-based. Conditions: different concentrations of D-catechin of Acacia species. As for the experimental part:
The growth of bacteria is measured spectrophotometrically. The variation of growth is measured for up to 48 hours at an interval of 6 hours each.
Two strains of Agrobacterium tumefaciens viz. EHA105 (mild) and GV2260 (virulent) harbouring the antibiotic resistance genes for kanamycin or hygromycin and the reporter gus gene were inoculated from mother cultures of respective strains into 10–30 ml liquid modified Yeast Mannitol Broth with kanamycin or hygromycin. The cultures were incubated for 12–16 hr at 25–30° C. and 150–200 rpm in dark and harvested at 0.6–0.8 optical density at 600 nm for 1×10^9 cells/ml during log phase of bacterial growth. […] Measurement of optical density at 600 nm at regular 6 hr intervals for 0–48 hr and the mean of three readings were plotted for development of the growth curve.
Crude mixture of catechins as well as caffeine at concentrations of 2–600 μg/ml were added to fresh cultures of Agrobacterium tumefaciens and maintained at 25–30° C. in dark at 150–200 rpm for 48 hr. The optical density was again measured at regular interval of 6 hr each for 0–48 hr for the plotting of the mean of the three readings in a linear graph in order to determine the effect of the crude mixture of catechins as well as caffeine at concentrations of 2–600 μg/ml on fresh cultures of Agrobacterium tumefaciens.

Data set [2] has as its system A. tumefaciens, supervirulent strain EHA101 (pEHA101/pGT100). The settings on record: 100 μg/ml, singly or in combination, 52 days in regeneration and elongation media; cited from earlier work.
A further data set relates to Agrobacterium. Conditions: carbenicillin, cefotaxime, ticarcillin for Brassica, Solanum, Rubus respectively; cited from earlier work.
The subject of data set [3] is Sitka spruce somatic embryos. The settings on record: cited from earlier work.
A further data set relates to guar tissues. Conditions: cited from earlier work.
In data set [4] the test system is cultured tissues of Vitis. Conditions: cited from earlier work.

On to `Oc1cc(O)c2c(c1)OC(c1ccc(O)c(O)c1)C(O)C2` [D-catechin], for which, in data set [1], the “growth of Agrobacterium tumefaciens” value was “promote and not inhibit the growth”.
For the compound `CO[C@@]1(NC(=O)Cc2cccs2)C(=O)N2C(C(=O)O)=C(COC(N)=O)CS[C@@H]21` [cefoxitin], the “elimination of A. tumefaciens from the explants” value (“elimination of A. tumefaciens” for short) in data set [2] is listed as “did not eliminate”.
As to `CO/N=C(\C(=O)N[C@@H]1C(=O)N2C(C(=O)O)=C(COC(C)=O)CS[C@H]12)c1csc(N)n1` [cefotaxime], the “elimination of residual Agrobacterium” value in the data set with Agrobacterium was “none of the antibiotics tested succeeded in eliminating Agrobacterium”. Moreover, the “effect on overall tissue growth” value in data set [3] was “no effect”. Also, in data set [2], the “elimination of A. tumefaciens” value is “did not eliminate”. The “phytotoxicity to guar explants” value in the data set on guar tissues was “phytotoxic”.
In the case of `CC1(C)S[C@@H]2[C@H](NC(=O)C(C(=O)O)c3ccccc3)C(=O)N2[C@H]1C(=O)O` (some centres unmarked) [carbenicillin], the “elimination of residual Agrobacterium” value with Agrobacterium is “none of the antibiotics tested succeeded in eliminating Agrobacterium”. Besides, in data set [3], the “development of mature somatic embryos” value is given as “prevented the development of mature somatic embryos”, the “reduction of early stage embryos” value is above 90% and the “reduction of tissue growth” value is 50%. Further, the “elimination of A. tumefaciens” value in data set [2] was “did not eliminate”. For the same compound, the “effect on plant regeneration” value in data set [4] is recorded as “inhibitory effects on plant regeneration”. Moreover, the “phytotoxicity to guar explants” value in the data set on guar tissues is recorded as “phytotoxic”.
Regarding `CC1(C)S[C@@H]2[C@H](NC(=O)[C@H](C(=O)O)c3ccsc3)C(=O)N2[C@H]1C(=O)O` [ticaracillin, ticarcillin], the “elimination of residual Agrobacterium” value in the data set with Agrobacterium was “none of the antibiotics tested succeeded in eliminating Agrobacterium”.
